# Measurements as given in patent US8883850B2, “Naphthalene carboxamide M1 receptor positive allosteric modulators” (Merck Sharp & Dohme Corp., priority 2010, dated 2014).
# pEC50: −log10 of the molar value.
# Target: T1, acetylcholine muscarinic M1 receptor (Homo sapiens, UniProt P11229)
# T1 construct: expressed in transfected cells; host or cells: CHOnfat (CHO cells; also called CHOK1/hM1)
# T1 sequence (P11229 1-460): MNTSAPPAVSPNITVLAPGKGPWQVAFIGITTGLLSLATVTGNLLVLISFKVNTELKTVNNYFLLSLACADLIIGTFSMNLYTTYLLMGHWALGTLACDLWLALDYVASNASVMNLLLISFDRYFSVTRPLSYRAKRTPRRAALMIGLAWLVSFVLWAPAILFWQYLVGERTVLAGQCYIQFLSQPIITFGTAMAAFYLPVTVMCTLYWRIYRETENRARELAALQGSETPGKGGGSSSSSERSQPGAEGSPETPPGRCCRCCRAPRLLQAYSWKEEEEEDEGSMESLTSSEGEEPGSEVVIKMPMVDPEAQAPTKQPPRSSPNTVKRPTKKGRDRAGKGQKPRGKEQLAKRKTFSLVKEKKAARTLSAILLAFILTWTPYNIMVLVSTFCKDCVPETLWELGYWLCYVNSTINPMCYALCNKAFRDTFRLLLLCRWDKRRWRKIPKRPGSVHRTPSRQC
# Test: M1 FLIPR assay: intracellular calcium, potentiation of acetylcholine EC20
# Format: cell-based
# Details: M1 activity in a FLIPR assay; Table 3, Examples 1-12; read-out: M1 Potential
# Protocol: The assay studies the effect of one or several concentrations of test compounds on basal or acetylcholine-stimulated Ca^2+ levels using FLIPR.
# For each compounds of the invention that was evaluated, the compound is prepared and subjected to a pre-incubation period of four minutes. Thereafter, a single EC20 concentration of acetylcholine is added to each well (3 nM final). The intracellular Ca^2+ level of each sample is measured and compared to an acetylcholine control to determine any modulatory activity.
# Cells: CHOnfat/hM1, hM2, hM3 or hM4 cells are plated 24 hours before the assay at a density of 18,000 cells/well (100 μL) in a 384 well plate. CHOnfat/hM1 and CHOnfat/hM3 Growth Medium: 90% DMEM (Hi Glucose); 10% HI FBS; 2 mM L-glutamine; 0.1 mM NEAA; Pen-Strep; and 1 mg/ml Geneticin, are added. For M2Gqi5CHOnfat and M4Gqi5CHOnfat cells, an additional 600 μg/ml hygromycin is added.
# Dye Loading Buffer: Assay Buffer plus 1% Fetal Bovine Serum and Fluo-4AM/Pluronic Acid Mixture. […] 20% Pluronic acid solution stock, with a concentration of 0.04% in Buffer, 0.02% in Assay. 65 μL of 2 mM Fluo-4AM are mixed with 130 μL of 20% pluronic acid. The resulting solution and 650 μL FBS is added to the assay buffer for a total volume of 65 mL.
# Positive Controls: 4-Br-A23187: 10 mM in DMSO, final concentration 10 μM. Acetylcholine: […], working stock at both 20 μM and 30 μM in assay buffer, final concentration of 10 μM. This is used to check the maximum stimulation of the CHOK1/hM1 cells. 20 μM (2×) acetylcholine is added in the preincubation part of the assay, and the 30 μM (3×) stock is added in the second part. (EC20)Acetylcholine: 10 mM in water, working stock of 9 nM (3×), and final concentration in assay is 3 nM. This is used after the preincubation with test compounds. Addition of the EC20 Acetylcholine to each well with a test compound will ascertain any modulator activity. 24 wells contain 3 nM Acetylcholine alone as a control.
# Four 96-well plates are combined into a 384-well plate using Mosquito Nanoliter Pipetting System by transferring 1 μl of serial diluted compounds to each well, and 1 mM acetylcholine (100× stock concentration) were added as a control. Using Temo, 49 μl assay buffer is added to each well of the 384-well plate right before assay.
# In a 96-well Whatman 2 ml Uniplate, 9 nM Acetylcholine (3×) is pipetted into wells corresponding to the screening compounds, and into control wells. The 30 μM acetylcholine control (3×) is added into control wells, and the 3× agonist plate is transferred into a 384 well plate.
# Cells are washed three times with 100 μL of buffer, leaving 30 μL of buffer in each well. Using Multimek, 30 μL of Dye Loading Buffer is added into each well and incubated at 37° C., 5% CO2 for up to one hour.
# After 60 minutes, the cells are washed three times with 100 μL of buffer, leaving 30 μL of buffer in each well. The cell plate, screening plate, and agonist addition plates are placed on the platform in the FLIPR and the door closed. A signal test to check background fluorescence and basal fluorescence signal is performed. Laser intensity is adjusted if necessary.
# Four minutes of pre-incubation with the test compounds is provided to determine any agonist activity on the M1 receptor by comparison to the […] acetylcholine control. After pre-incubation, the EC20 value of acetylcholine (3 nM final) is added to determine any modulator activity.
row,pEC50,Compound
1,5.48,"COc1ccc(Cc2cc(C(=O)O)c(OC)c3ccccc23)cc1 [Example 1, 1-Methoxy-4-(4-methoxybenzyl)-2-naphthoic acid]"
2,6.24,"COc1c(C(=O)O)cc(Cc2ccc(-n3cccn3)cc2)c2ccccc12 [Example 2, 1-Methoxy-4-[4-(1H-pyrazol-1-yl)benzyl]-2-naphthoic acid]"
3,6.59,"COc1c(C(=O)N[C@H]2CCCC[C@@H]2O)cc(Cc2ccc(Cl)nc2)c2ccccc12 [Example 3, 4-[(6-Chloropyridin-3-yl)methyl]-N-[(1S,2S)-2-hydroxycyclohexyl]-1-methoxy-2-naphthamide]"
4,6.92,COc1c(C(=O)N[C@H]2CCCC[C@@H]2O)cc(Cc2ccc(C)nc2)c2ccccc12 [Example 4]
5,5.33,"O=C(N[C@H]1CCCC[C@@H]1O)c1cc(Cc2ccc(-n3cccn3)nc2)c2ccccc2c1O [Example 6, 1-Hydroxy-N-[(1S,2S)-2-hydroxycyclohexyl]-4-{[6-(1H-pyrazol-1-yl)pyridine-3-yl]methyl}-2-naphthamide]"
6,7.09,"COc1c(C(=O)N[C@H]2CCCC[C@@H]2O)cc(Cc2ccc(-n3cccn3)nc2)c2ccccc12 [Example 7, N-[(1S,2S)-2-Hydroxycyclohexyl]-1-methoxy-4-{[6-(1H-pyrazol-1-yl)pyridine-3-yl]methyl}-2-naphthamide]"
7,5.41,"COc1c(C(=O)N[C@H]2CCCC[C@@H]2O)cc(CN2CCN(c3cnn(C)c3)CC2)c2ccccc12 [Example 8, N-[(1S,2S)-2-Hydroxycyclohexyl]-1-methoxy-4-{[4-(1-methyl-1H-pyrazol-4-yl)piperazin-1-yl]methyl}-2-naphthamide]"
8,6.72,"CCc1ccc(Cc2cc(C(=O)N[C@H]3CCCC[C@@H]3O)c(OC)c3ccccc23)cn1 [Example 9, N-[(1S,2S)-2-Hydroxycyclohexyl]-1-methoxy-4-[(6-ethylpyridin-3-yl)methyl]-2-naphthamide]"
9,7.25,"COc1c(C(=O)N[C@H]2CCOC[C@@H]2O)cc(Cc2ccc(Cl)nc2)c2ccccc12 [Example 10, 4-[(6-Chloropyridin-3-yl)methyl]-N-[(3R,4S)-3-hydroxytetrahydro-2H-pyran-4-yl]-1-methoxy-2-naphthamide]"
10,6.55,"COc1c(C(=O)N[C@H]2CCCC[C@@H]2O)cc(Cc2ccnc(SC)c2)c2ccccc12 [Example 11, N-[(1S,2S)-2-Hydroxycyclohexyl]-1-methoxy-4-{[2-(methylthio)pyridin-4-yl]methyl}-2-naphthamide]"
11,6.01,CCOc1c(C(=O)N[C@H]2CCCC[C@@H]2O)cc(Cc2ccc(Cl)nc2)c2ccccc12 [Example 12]

row,Compound,pEC50
1,"COc1c(C(=O)N[C@H]2CCCC[C@@H]2O)cc(Cc2ccc(-c3cnn(C)c3)nc2)c2ccccc12 [Example 5, N-[(1S,2S)-2-Hydroxycyclohexyl]-1-methoxy-4-{[6-(1-methyl-1H-pyrazol-4-yl)pyridine-3-yl]methyl}-2-naphthamide]",7.77

# Same assay, conditions: inflection point value from FLIPR assay; CHOnfat/hM1 cells; 4 min pre-incubation, then acetylcholine EC20 (3 nM final); Table 1, Formula (III); read-out: M1 IP Value
row,pEC50,Compound
1,6.06,COc1c(C(=O)O)cc(Cc2ccc(-c3ccccc3)cc2)c2ccccc12 [Compound 1-1]
2,5.81,COc1c(C(=O)O)cc(Cc2ccc(NC(C)=O)cc2)c2ccccc12 [Compound 1-2]
3,7.62,COc1c(C(=O)N[C@H]2CCCC[C@@H]2O)cc(Cc2ccc(-c3cccnc3)nc2)c2ccccc12 [Compound 1-3]
4,6.55,COc1ccc(Cc2cc(C(=O)N[C@H]3CCCC[C@@H]3O)c(OC)c3ccccc23)cn1 [Compound 1-7]
5,6.77,COc1c(C(=O)N[C@H]2CCCC[C@@H]2O)cc(Cc2ccc(SC)nc2)c2ccccc12 [Compound 1-9]
6,6.65,COc1c(C(=O)N[C@H]2CCCC[C@@H]2O)cc(Cc2ccnc(C)c2)c2ccccc12 [Compound 1-11]
7,6.85,COc1cc(Cc2cc(C(=O)N[C@H]3CCCC[C@@H]3O)c(OC)c3ccccc23)ccn1 [Compound 1-12]
8,7.06,COc1c(C(=O)N[C@H]2CCOC[C@@H]2O)cc(Cc2ccc(C)nc2)c2ccccc12 [Compound 1-13]
9,8.17,COc1c(C(=O)N[C@H]2CCOC[C@@H]2O)cc(Cc2ccc(-c3ccnc(C)c3)nc2)c2ccccc12 [Compound 1-14]
10,7.66,COc1c(C(=O)N[C@H]2CCOC[C@@H]2O)cc(Cc2ccc(-c3ccc(C)nc3)nc2)c2ccccc12 [Compound 1-15]

# Same assay, conditions: inflection point value from FLIPR assay; CHOnfat/hM1 cells; 4 min pre-incubation, then acetylcholine EC20 (3 nM final); Table 2, Formula (IV); read-out: M1 IP Value
row,pEC50,Compound
1,5.94,C=CCOc1c(C(=O)N[C@H]2CCCC[C@@H]2O)cc(Cc2ccc(Cl)nc2)c2ccccc12 [Compound 2-2]
